Experimental findings from ChEMBL document CHEMBL1201862, “PubChem BioAssay data set” (2004) are described below.

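48-hour exposure; five concentrations; linearly interpolated endpoints. Abbreviation: GI50, concentration required for 50% inhibition of growth.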 Calls of active or inactive are those of the source. No stated cut-off is given here; in the data, active = GI50 up to about 1.1 µM and inactive = higher. Bounds are passed on as bounds.

Some test systems named below: SN12C; HCT-116; RXF 393; HL-60; NCI-H522; MOLT-4; CCRF-CEM; UO-31; SF-268; UACC-62; SK-MEL-5; LOX IMVI; A549; HCT-15; SW-620; COLO 205; RPMI-8226; HCC 2998; CAKI-1.
Holding throughout (assay): DTP human tumour cell line panel, 48 h

The term GI50 denotes the concentration giving 50% growth inhibition. In the case of `CC1(C)OP23(NC(=O)OC2(C(F)(F)F)c2ccccc2O3)OC1(C)C` (stereo not given), the GI50 in the assay on SN12C, in the assay on HCT-116, in the assay with RXF 393, in the assay with HL-60, with NCI-H522 and in the assay with MOLT-4 was > 100 µM (inactive) in each case. Moreover, the GI50 in the assay on CCRF-CEM, in the assay on UO-31, in the assay with SF-268, in the assay with UACC-62, in the assay with SK-MEL-5 and with LOX IMVI was > 100 µM (inactive) throughout. For the same molecule, the values for the GI50 with A549 and with HCT-15 were > 100 µM (inactive) and more than 100 µM, respectively.

Turning to `C[Si](C)(C)/C=C/CN1C(=O)CCC1=O`, the GI50 in the assay with SN12C is > 100 µM (inactive); in the assay with HCT-116, > 100 µM (inactive); in the assay with SW-620 it was > 100 µM (inactive); in the assay on HL-60 it was > 100 µM (inactive); in the assay with NCI-H522, > 100 µM (inactive); in the assay with MOLT-4 it was > 10 µM (inactive). Moreover, the GI50 in the assay with CCRF-CEM, with UO-31, in the assay on COLO 205, in the assay with SF-268, with UACC-62 and in the assay with SK-MEL-5 was > 100 µM (inactive) in each case. In addition, the GI50 is > 100 µM (inactive) in the assay on RPMI-8226; > 100 µM (inactive) in the assay with HCC 2998; > 100 µM (inactive) in the assay with LOX IMVI; > 100 µM (inactive) in the assay with A549; more than 100 µM in the assay on HCT-15.

`COc1cc(C2C(C(=O)O)=C(CO)Oc3cc4c(cc32)OCO4)cc(OC)c1O` (stereo not given): the GI50 with SN12C, with HCT-116, in the assay with SW-620, in the assay on HL-60, with MOLT-4 and in the assay on CCRF-CEM was > 100 µM (inactive) in each case. Besides, the GI50 in the assay on UO-31, in the assay with COLO 205, in the assay with UACC-62, in the assay on SK-MEL-5, in the assay on RPMI-8226 and in the assay with CAKI-1 was > 100 µM (inactive) in each case. Moreover, the values for the GI50 in the assay on LOX IMVI, in the assay on A549 and with HCT-15 were > 100 µM (inactive), > 100 µM (inactive) and more than 100 µM, respectively.

Regarding `CN(/N=C1\C(=O)Nc2ccccc21)c1ccccc1`, the GI50 was 57.8 µM (inactive) with HCT-116; > 100 µM (inactive) in the assay on SW-620; 56.5 µM (inactive) with HL-60; 87.3 µM (inactive) in the assay on NCI-H522; 45.2 µM (inactive) with MOLT-4; 58.7 µM (inactive) with CCRF-CEM. Also, the GI50 is 11.8 µM (inactive) with UO-31; > 10 µM (inactive) in the assay on COLO 205; 43.2 µM (inactive) with SF-268; > 100 µM (inactive) with UACC-62; 32.6 µM (inactive) with SK-MEL-5; 74.3 µM (inactive) in the assay with RPMI-8226. For the same molecule, the GI50 with HCC 2998 is > 100 µM (inactive); with CAKI-1 it was 22.1 µM (inactive); with LOX IMVI, > 100 µM (inactive); in the assay on A549 it was 72.9 µM (inactive); in the assay on HCT-15, 44.2 µM.

For `O=C(O)C12CCCCC1CCCC2` (stereo not given), the GI50 with SN12C, with HCT-116, in the assay on SW-620, in the assay with HL-60, in the assay on NCI-H522 and with MOLT-4 was > 100 µM (inactive) throughout. Besides, the GI50 in the assay on CCRF-CEM, with COLO 205, in the assay on SF-268, in the assay on UACC-62, with SK-MEL-5 and in the assay on RPMI-8226 was > 100 µM (inactive) in each case. The GI50 in the assay on HCC 2998 is > 100 µM (inactive); in the assay with CAKI-1, > 100 µM (inactive); in the assay on LOX IMVI it was > 100 µM (inactive); in the assay on A549 it was > 100 µM (inactive); in the assay on HCT-15, more than 100 µM.
